Where “and” joins values, the source holds several entries; their conditions need not be identical. Equal entries are not always repeated. Where two headings read alike, the source gives them in different places.
What was measured:
[1] = target: T1, human dopamine transporter (hDAT) (Homo sapiens, UniProt Q01959); test: biochemical; assay type: binding
[2] = target: T2, human norepinephrine transporter (hNET) (Homo sapiens, UniProt P23975); test: cell-based
[3] = target: T1, human dopamine transporter (hDAT); test: cell-based
[4] = target: T2, human norepinephrine transporter (hNET); test: biochemical; assay type: binding
[5] = read-out: [125I]RTI-55 binding Ki, DAT
[6] = read-out: [3H]Dopamine Uptake IC50
[7] = read-out: [125I]RTI-55 binding Ki, NET
[8] = HEK-hNET cells, read-out: [3H]NE Uptake IC50
[9] = Table 2, read-out: Reuptake [3H]NE (Ki ± SD)
[10] = HEK-hNET cells, read-out: [125I]RTI-55 binding Ki, NET

T1 sequence (Q01959 whole entry): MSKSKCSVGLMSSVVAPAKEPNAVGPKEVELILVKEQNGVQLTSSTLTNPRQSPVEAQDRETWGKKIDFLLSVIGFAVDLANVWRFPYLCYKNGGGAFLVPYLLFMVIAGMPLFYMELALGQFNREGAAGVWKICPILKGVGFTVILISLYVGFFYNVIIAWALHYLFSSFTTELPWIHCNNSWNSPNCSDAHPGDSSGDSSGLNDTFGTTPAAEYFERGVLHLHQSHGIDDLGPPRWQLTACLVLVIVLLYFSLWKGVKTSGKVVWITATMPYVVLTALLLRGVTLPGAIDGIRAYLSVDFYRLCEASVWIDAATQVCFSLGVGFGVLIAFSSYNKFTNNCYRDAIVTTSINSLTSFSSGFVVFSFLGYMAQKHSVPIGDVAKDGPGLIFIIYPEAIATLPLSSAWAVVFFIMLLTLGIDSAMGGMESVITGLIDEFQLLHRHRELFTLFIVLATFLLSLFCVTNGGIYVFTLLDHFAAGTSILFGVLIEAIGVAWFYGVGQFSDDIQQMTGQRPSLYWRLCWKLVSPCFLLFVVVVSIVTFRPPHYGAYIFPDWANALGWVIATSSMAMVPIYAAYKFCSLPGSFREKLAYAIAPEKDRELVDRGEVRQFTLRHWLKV
T2 sequence (P23975 whole entry): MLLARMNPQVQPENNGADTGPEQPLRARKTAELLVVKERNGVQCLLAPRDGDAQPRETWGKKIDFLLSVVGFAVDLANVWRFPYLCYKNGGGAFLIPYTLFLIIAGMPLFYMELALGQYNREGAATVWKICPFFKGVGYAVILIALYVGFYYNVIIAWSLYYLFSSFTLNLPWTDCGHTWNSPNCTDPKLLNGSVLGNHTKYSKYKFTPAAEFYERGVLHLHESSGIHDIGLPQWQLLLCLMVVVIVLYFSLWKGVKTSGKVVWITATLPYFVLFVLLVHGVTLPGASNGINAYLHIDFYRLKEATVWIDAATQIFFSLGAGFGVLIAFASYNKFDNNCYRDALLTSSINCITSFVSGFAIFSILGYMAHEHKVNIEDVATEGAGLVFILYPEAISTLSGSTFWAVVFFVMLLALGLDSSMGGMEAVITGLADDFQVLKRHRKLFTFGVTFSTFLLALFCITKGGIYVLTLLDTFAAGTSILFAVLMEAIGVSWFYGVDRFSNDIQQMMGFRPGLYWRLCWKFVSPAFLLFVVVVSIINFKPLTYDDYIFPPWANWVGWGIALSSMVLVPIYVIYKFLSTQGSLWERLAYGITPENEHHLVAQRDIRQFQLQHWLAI

| SMILES | Binding discrimination ratio NET/DAT [1] | Binding discrimination ratio SERT/DAT [1] | Hill coefficient [1] | Ki [1, 5] [µM] | Discrimination ratio uptake/binding (DA) [3] | IC50 [3, 6] [nM] | Ki [4, 7] [µM] | Ki ([1]; [125I]RTI-55 binding Ki, DAT) [µM] | IC50 [2, 8] [nM] | Hill coefficient [4] | Discrimination Ratio DAT Binding/Reuptake [3] | IC50 ([2]; read-out: [3H]NE Uptake IC50) | other results |
| --- | --- | --- | --- | --- | --- | --- | --- | --- | --- | --- | --- | --- | --- |
| O=C1CN(CCCCOC(c2ccc(F)cc2)c2ccc(F)cc2)CCN1 [Compound 31524] | >2.4 | 0.4 | −064 ± 0.03 | 4.1 | 0.6 | 2290 | > 10 |  |  |  |  |  | Ki ([2]; read-out: Reuptake [3H]NE (Ki ± SD)): > 10000 nM; Ki ([3]; read-out: Reuptake [3H]DA (Ki ± SD)): 2290 ± 200 nM |
| CC(=O)C1(c2ccccc2)CCN(CCCCOC(c2ccc(F)cc2)c2ccc(F)cc2)CC1 [Compound 31525] | 5.3 | 5.8 | −0.61 ± 0.01 |  | 47.5 |  |  | 0.0217 | 2550 | −0.71 ± 0.06 |  |  | Ki [2, 9]: 2550 ± 950 nM; IC50 ([3]; HEK-hDAT cells, read-out: [3H]Dopamine Uptake IC50): 1030 nM; Ki ([3]; Table 2, read-out: Reuptake [3H]DA (Ki ± SD)): 1030 ± 330 nM; Ki [4, 10]: 0.114 µM |
| Fc1ccc(C(OCCCCN2CCN(c3ccc(F)cc3)CC2)c2ccc(F)cc2)cc1 [Compound 31527] | 7.8 | 1.3 | −0.84 ± 0.05 |  | 23.0 |  |  | 0.0265 |  | −0.72 ± 0.05 | 23.0 |  | Ki [2]: 225 ± 28 nM; IC50 ([2]; [3H]NE Uptake IC50): 225 ± 28 nM; IC50 [3]: 610 nM; Ki [3]: 610 ± 150 nM; Ki ([4]; [125I]RTI-55 binding Ki, NET): 0.207 µM |
| OC1(c2ccccc2)CCN(CCCCOC(c2ccc(F)cc2)c2ccc(F)cc2)CC1 [Compound 31531] | 8.4 | 2.8 | −0.63 ± 0.06 |  | 15.0 |  |  | 0.0064 | 179 | −0.73 ± 0.03 |  |  | Ki [2, 9]: 179 ± 47 nM; IC50 [3]: 96 nM; Ki [3]: 96 ± 11 nM; Ki ([4]; [125I]RTI-55 binding Ki, NET): 0.054 µM |
| OC1(c2ccc(Cl)cc2)CCN(CCCCOC(c2ccc(F)cc2)c2ccc(F)cc2)CC1 [Compound 31625] | 51.7 | 2380 | −0.74 ± 0.25 |  |  |  |  | 0.0042 | 800 | −0.99 ± 0.22 | 95.2 |  | IC50 ([3]; HEK-hDAT cells, text of Examples 20 and 24, read-out: [3H]Dopamine Uptake IC50): 400 nM; Ki [4, 10]: 0.217 µM |
| Fc1ccc(C(OCCCCN2CCN(c3ccccc3Cl)CC2)c2ccc(F)cc2)cc1 [Compound 31626] | 8.1 | 1.3 | −1.11 ± 0.08 | 0.067 |  | 328 | 0.54 |  |  | −1.39 ± 0.23 | 4.9 | 290 nM and 299 nM |  |
| O=C1c2ccccc2C(=O)N1CCCCN1CCC(O)(c2ccc(Br)cc2)CC1 [Compound 31627] | 1 | >0.2 |  |  |  | >10000 |  |  |  |  |  | >10000 nM | Ki ([1]; HEK-hDAT cells, bound given in μM, read-out: [125I]RTI-55 binding Ki, DAT): > 10 µM; Ki ([4]; HEK-hNET cells, bound given in μM, read-out: [125I]RTI-55 binding Ki, NET): > 10 µM |
| NC(=O)C1CCCN(CCCCOC(c2ccc(F)cc2)c2ccc(F)cc2)C1 (stereo not shown) [Compound 31628] | 6.1 | 1.4 | −1.02 ± 0.16 | 0.094 |  | 56 | 0.578 |  |  | −1.48 ± 0.70 | 0.6 | 158 nM |  |
| OC1CCN(CCCCOC(c2ccc(F)cc2)c2ccc(F)cc2)CC1 [Compound 31648] | 5.4 | 3.7 | −0.69 ± 0.07 | 0.124 ± 0.027 |  | 101 | 0.61 |  |  | −0.75 ± 0.06 | 0.9 | 143 nM |  |
| O=c1[nH]c2ccccc2n1C1CCN(CCCCOC(c2ccc(F)cc2)c2ccc(F)cc2)CC1 [Compound 31649] | 16.8 | 2.9 | −0.63 ± 0.23 | 0.00132 |  | 426 | 0.0222 |  |  | −0.47 ± 0.03 | 323 | 132 nM |  |

Source: US6835371B1 (priority 1997, dated 2004)
